Laboratory results published in PMC6971011, “Conformational changes in Apolipoprotein N-acyltransferase (Lnt)” (Scientific Reports, 2020).

Biological target: T1, Apolipoprotein N-acyltransferase (Lnt); Lnt-C1, Lnt-C2 (Escherichia coli, UniProt P23930)
T1 construct: full length; C1: fifteen-residue C-terminal tail with His8-tag kept; C2: N-terminal His6-tag TEV-cleaved, two extra N-terminal residues; expressed in E. coli C41, detergent-purified
Experiment: X-ray crystallography ([…] Å) and LC-MS/MS of tryptic peptide
Format: binding
Conditions: covalent; thioester on active site C387 (acyl-enzyme intermediate, co-purified from expression host); Lnt-C1 chain B; vapor diffusion, pH 6.4

SMILES: CCCCCCCCCCCCCCCC(=O)O [palmitate]
- X-ray crystallography (3.5 Å) and LC-MS/MS of tryptic peptide: mass spectrometry analysis (Fig. 3D) on purified Lnt that identified a palmitoyl modification at position C387
